Publication PMC6263107 (Journal of Enzyme Inhibition and Medicinal Chemistry, 2018)
Values joined by “and” are separate entries in the source; they are usually repeats but may differ in a detail not shown here. Identical values can stand only once. Like-named read-outs stand apart in the source and are kept apart here.

Columns and labels:
[1] = Oxygen radical absorbance capacity assay (ORAC-FL); details: ORAC-FL, Trolox equivalents
Protocol: The antioxidant activity of KTs was determined using the ORAC-FL method described by Dávalos et al.[30] using fluorescein as a fluorescent probe with minor modification. Briefly, fluorescein and antioxidant were incubated in a black 96-well microplate (Nunc) for 15 min at 37 °C. The 2,2’-azobis(amidinopropane) dihydrochloride (AAPH) was then added quickly using the built-in injector of Varioskan Flash plate reader (Thermo Scientific).
Results are expressed in the Trolox equivalents (TE) unit in relation to radical scavenging properties of Trolox.

[2] = in vitro; assay type: cell-based; details: human
Protocol: (§1) The culture medium was refreshed after 24 h of incubation and 100 µl of six different concentrations (1–1000 µM) of test compounds or DMSO (0.1%) were then added. The cell viability was monitored by colourimetric assay with 3-[4,5-dimethylthiazol-2-yl]-2,5-diphenyl-tetrazolium bromide (MTT).
(§2) In this sense, all new KTs were submitted to the in vitro cell viability test (MTT assay) using human hepatocellular carcinoma cell line (HepG2)[26], as the most accepted probe to evaluate hepatotoxic effects. For this experiment, six different concentrations from 1 to 1000 µM were used.

[3] = target: EeAChE (Electrophorus electricus, UniProt O42275); test: biochemical; details: mean ± SEM
Chain of EeAChE (O42275 24-633): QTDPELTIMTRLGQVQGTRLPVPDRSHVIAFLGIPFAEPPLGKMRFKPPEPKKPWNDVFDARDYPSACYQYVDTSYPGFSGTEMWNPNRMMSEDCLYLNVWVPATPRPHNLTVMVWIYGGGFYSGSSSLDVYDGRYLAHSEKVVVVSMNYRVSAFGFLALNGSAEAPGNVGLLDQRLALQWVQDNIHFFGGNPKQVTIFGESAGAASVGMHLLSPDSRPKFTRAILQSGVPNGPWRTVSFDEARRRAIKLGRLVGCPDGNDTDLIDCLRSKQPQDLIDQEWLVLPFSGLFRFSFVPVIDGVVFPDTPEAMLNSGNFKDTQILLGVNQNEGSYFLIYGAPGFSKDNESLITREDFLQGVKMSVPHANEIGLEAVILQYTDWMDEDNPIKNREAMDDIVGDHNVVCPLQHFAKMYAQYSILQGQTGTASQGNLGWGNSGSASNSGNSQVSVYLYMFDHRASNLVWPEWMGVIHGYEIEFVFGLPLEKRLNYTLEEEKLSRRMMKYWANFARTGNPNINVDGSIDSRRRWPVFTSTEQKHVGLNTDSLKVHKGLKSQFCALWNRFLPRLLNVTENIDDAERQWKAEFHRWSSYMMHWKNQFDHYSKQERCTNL
Protocol: (§3) Ellman’s protocol was followed to perform the anticholinesterasic activity. Briefly, the reaction was carried out in a final volume of 3 ml of a phosphate-buffered solution (0.1 M) at pH =8.0 containing (2.625 µl, 0.35 mM) of 5,5’-dithiobis-2-nitrobenzoic acid (DTNB), 40 µl 1% w/v Bovine Albumin Serum phosphate-buffered solution (BSA), (29 µl, 0.035 U/ml) of EeAChE or (60 µl, 0.05 U/ml) of eqBuChE, and 3 µl of tested compound, which were incubated for 10 min. Then, the acetylthiocholine iodide or butyrylthiocholine was added, and the reaction was incubated for additional 15 min. The activity in absence of compound was used as control.

[4] = target: T1, eqBuChE (Equus caballus, UniProt P81908); test: biochemical; details: for IC50: mean ± SEM; for inhibition at 10 µM: Table 2 footnote b
T1 construct: serum horse BuChE (eqBuChE); from tissue; host or cells: horse serum
T1 sequence (P81908 whole entry): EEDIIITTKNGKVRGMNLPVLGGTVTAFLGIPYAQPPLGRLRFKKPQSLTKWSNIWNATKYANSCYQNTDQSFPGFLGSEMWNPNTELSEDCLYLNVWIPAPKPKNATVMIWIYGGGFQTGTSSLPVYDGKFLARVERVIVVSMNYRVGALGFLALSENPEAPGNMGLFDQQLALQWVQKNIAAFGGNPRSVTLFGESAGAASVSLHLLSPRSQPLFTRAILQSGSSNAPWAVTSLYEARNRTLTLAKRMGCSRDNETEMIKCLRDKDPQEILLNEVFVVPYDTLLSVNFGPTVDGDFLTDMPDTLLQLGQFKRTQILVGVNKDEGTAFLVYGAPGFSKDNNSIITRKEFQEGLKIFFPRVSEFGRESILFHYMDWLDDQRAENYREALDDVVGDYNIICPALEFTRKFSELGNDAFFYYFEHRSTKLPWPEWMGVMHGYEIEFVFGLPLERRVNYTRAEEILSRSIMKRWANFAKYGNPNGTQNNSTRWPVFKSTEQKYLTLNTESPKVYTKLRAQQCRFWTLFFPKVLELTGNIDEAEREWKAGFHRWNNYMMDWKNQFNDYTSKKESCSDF
Protocol: as §3

[5] = target: T2, hAChE (Homo sapiens, UniProt P22303); test: biochemical
T2 construct: 10 µl of cholinesterase obtained from human erythrocyte hemolyzate, out of blood samples; from tissue; host or cells: human erythrocyte hemolysate from blood samples
T2 sequence (P22303 32-617 isoform P22303-2 limits assumed): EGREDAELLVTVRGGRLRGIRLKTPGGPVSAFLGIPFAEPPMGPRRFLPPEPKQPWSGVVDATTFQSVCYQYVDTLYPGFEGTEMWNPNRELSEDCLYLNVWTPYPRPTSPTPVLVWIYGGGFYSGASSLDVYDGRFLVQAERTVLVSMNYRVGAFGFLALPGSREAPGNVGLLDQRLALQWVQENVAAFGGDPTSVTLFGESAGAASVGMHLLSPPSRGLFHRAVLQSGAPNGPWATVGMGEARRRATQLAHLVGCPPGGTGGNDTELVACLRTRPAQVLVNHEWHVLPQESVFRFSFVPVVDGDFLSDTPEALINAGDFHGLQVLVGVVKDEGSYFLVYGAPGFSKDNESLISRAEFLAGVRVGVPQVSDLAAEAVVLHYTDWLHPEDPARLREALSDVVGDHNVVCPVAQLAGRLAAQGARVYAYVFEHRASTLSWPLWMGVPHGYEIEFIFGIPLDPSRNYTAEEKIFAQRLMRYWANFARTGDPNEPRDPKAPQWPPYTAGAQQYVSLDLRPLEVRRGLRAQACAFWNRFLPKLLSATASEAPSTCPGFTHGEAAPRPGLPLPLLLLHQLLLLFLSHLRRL
Protocol: This blend was preincubated for 5 min and 20 µl of 0.01 M substrate (ATCh or BTCh) was added to initiate the reaction. […] The IC50 values are expressed as a mean ± SEM.
Next, as planned at the beginning of the project, the analysis of the antioxidant capacity of KT 2a–d, 2f–h, and 2l was carried out.

[6] = system: SH-SY5Y cells; test: Neuroprotection against Aβ1–40 peptide-induced cell death (MTT); assay type: cell-based, human; details: for Aβ1–40 (%) neuroprotection: Aβ 1–40 30 µM
Protocol: (§4) SH-SY5Y cell culture and treatment with compounds 2b–d and 2f. The cultures of human SH-SY5Y neuroblastoma cells kept under a CO2/air (5%/95%) humidified atmosphere at 37 °C for 24 h were treated with 100 µl of the test compounds or DMSO (0.1%) in DMEM/F12 (1:1) medium supplemented with 1% fetal bovine serum, 1X non-essential amino acids, 100 units/ml penicillin and 10 mg/ml streptomycin. Treatment medium was renewed every day for up to 48 h of treatment. MTT assay was then performed.
(§5) SH-SY5Y cells were seeded in 96-well culture plates at a density of 8 × 10^4 cells per well in DMEM/F12 (1:1) medium supplemented with 10% fetal bovine serum, 1X non-essential amino acids, 100 units/mL penicillin and 10 mg/mL streptomycin (Dutscher, France). After 24 h of incubation, the cultures were treated with 100 µl of the test compounds or DMSO (0.1%) in the same medium. Following 24 h, the cells were co-incubated with oligomycin A (10 µM)/rotenone (30 µM) (Sigma, France) or Aβ 1–40 (30 µM) with or without the tested compounds 2b–d and 2f at nontoxic concentrations against cells for an additional period of 24 h. MTT assay was then performed to determine the % of cell viability.
(§6) The ability to prevent the human neuroblastoma cell line SH-SY5Y cell death induced by toxic insults such as Αβ 1–40, implicated in ROS production and apoptosis-related signalling pathways, and oligomycin/rotenone (O/R)[39], was then assayed to determine the neuroprotective capacity of the four less hepatotoxic KTs 2b–d and 2f at nontoxic concentration against SH-SY5Y 3 and 10 µM, using melatonin and KA as reference molecules. For the evaluation of the neuroprotective effect, the cytotoxicity of O/R (10 µM/30 µM) on SH-SY5Y cell viability was determined as well as the toxicity of the selected KTs 2b–d and 2f at.

[7] = system: SH-SY5Y cells; test: Neuroprotection against oligomycin/rotenone-induced cell death (MTT); assay type: cell-based, human; details: O 10 µM / R 30 µM
Protocol: as §4, §5, §6

[8] = system: HepG2 cells; test: in vitro; assay type: cell-based; details: concentrations up to 1000 µM
Protocol: as §1, §2

[9] = system: SH-SY5Y cells; set-up: method as in PMID 27736061; details: Aβ 1–40 30 µM, cited from earlier work
[10] = system: SH-SY5Y cells; set-up: method as in PMID 27736061; details: O 10 µM / R 30 µM, cited from earlier work
[11] = HepG2 cells, 1 µM, percent of cell viability vs DMSO-treated control, read-out: HepG2 cell viability
[12] = HepG2 cells, 3 µM, percent of cell viability vs DMSO-treated control, read-out: HepG2 cell viability
[13] = HepG2 cells, 10 µM, percent of cell viability vs DMSO-treated control, read-out: HepG2 cell viability
[14] = HepG2 cells, 30 µM, percent of cell viability vs DMSO-treated control, read-out: HepG2 cell viability
[15] = HepG2 cells, 100 µM, percent of cell viability vs DMSO-treated control, read-out: HepG2 cell viability
[16] = HepG2 cells, 300 µM, percent of cell viability vs DMSO-treated control, read-out: HepG2 cell viability
[17] = HepG2 cells, 1000 µM, percent of cell viability vs DMSO-treated control, read-out: HepG2 cell viability

| Structure (SMILES) | ORAC [1] | viability at 1 µM [2, 11] | viability at 3 µM [2, 12] | viability at 10 µM [2, 13] | viability at 30 µM [2, 14] | viability at 100 µM [2, 15] | viability at 300 µM [2, 16] | viability at 1000 µM [2, 17] | IC50 [3] | IC50 [4] | further results |
| --- | --- | --- | --- | --- | --- | --- | --- | --- | --- | --- | --- |
| COc1cc(/C=C/C(=O)O)ccc1O [FA, ferulic acid, reference compound] | 3.74±0.22 TE and 3.74 TE | – | – | – | – | – | – | – | – | – | – |
| Nc1c2c(nc3c1C(c1ccccc1)c1oc(CO)cc(=O)c1O3)CCCC2 (stereo not drawn) [KT2a] | 2.58±0.22 TE and 2.58 TE | 96.8 ± 1% | 94.9 ± 2.9% | 99.3 ± 1.7% | 105 ± 5.3% | 108 ± 5% | 95 ± 3.4% | 50.3 ± 5.7% | 3.3 ± 0.09 µM | 12.15 ± 0.09 µM | inhibition at 10 µM ([5]; at 10 μM, Table 2 footnote b): < 50% |
| Cc1ccc(C2c3oc(CO)cc(=O)c3Oc3nc4c(c(N)c32)CCCC4)cc1 (stereo not drawn) [KT2b] | 2.96±0.18 TE | 105 ± 3.1% | 110 ± 3.2% | 105 ± 1.9% | 107 ± 2.9% | 113 ± 8.4% | 108 ± 5.7% | 87.9 ± 5.2% | 1.4 µM | 10.09 ± 0.09 µM | Aβ1–40 (%) neuroprotection ([6]; compound 3 µM): 27.85 ± 0.15 %; Aβ1–40 (%) neuroprotection ([6]; compound 10 µM): np; neuroprotective activity ([6]; on any of the toxic insults investigated (O/R, Aβ 1–40)): very poor neuroprotective activity; O/R (%) neuroprotection ([7]; compound 3 µM): 19.66 ± 0.07%; O/R (%) neuroprotection ([7]; compound 10 µM): 3.65 ± 0.07%; HepG2 toxicity [8]: no significant toxicity; IC50 ([5]; mean ± SEM): 13.7 ± 1.7 µM |
| COc1ccccc1C1c2oc(CO)cc(=O)c2Oc2nc3c(c(N)c21)CCCC3 (stereo not drawn) [KT2c] | 6.05±0.41 TE and 6.05 TE | 94.7 ± 2.4% | 103 ± 2.8% | 99 ± 1.1% | 98.2 ± 2.2% | 96.1 ± 1.5% | 88.5 ± 7.1% | 70.7 ± 7.7% | 2.39 ± 0.02 µM | – | Aβ1–40 (%) neuroprotection ([6]; compound 3 µM): np; Aβ1–40 (%) neuroprotection ([6]; compound 10 µM): np; O/R (%) neuroprotection ([7]; compound 3 µM): 12.18 ± 0.08%; O/R (%) neuroprotection ([7]; compound 10 µM): 16.56 ± 0.02%; inhibition at 10 µM [4]: < 50%; inhibition at 10 µM ([5]; at 10µM, Table 1S footnote c): < 50% |
| COc1ccc(C2c3oc(CO)cc(=O)c3Oc3nc4c(c(N)c32)CCCC4)cc1 (stereo not drawn) [KT2e] | 4.46±0.27 TE | 95.5 ± 5.5% | 96.1 ± 7.1% | 95.9 ± 5.6% | 98.3 ± 3.8% | 86.1 ± 3.8% | 70.9 ± 4.5% | 41.7 ± 3% | 1.14 ± 0.02 µM | 7.57 ± 0.13 µM | – |
| Nc1c2c(nc3c1C(c1ccccc1F)c1oc(CO)cc(=O)c1O3)CCCC2 (stereo not drawn) [KT2f] | 3.85±0.42 TE | 108 ± 6.2% | 96.1 ± 2.5% | 99.2 ± 2.8% | 102 ± 7.1% | 101 ± 9.2% | 95.3 ± 4.1% | 64 ± 8% | 2.11 ± 0.01 µM | 6.69 ± 0.1 µM | Aβ1–40 (%) neuroprotection ([6]; compound 3 µM): 25.10 ± 0.06 %; Aβ1–40 (%) neuroprotection ([6]; compound 10 µM): 4.1 ± 0.04%; O/R (%) neuroprotection ([7]; compound 3 µM): 16.50 ± 0.07%; O/R (%) neuroprotection ([7]; compound 10 µM): np; inhibition at 10 µM ([5]; at 10 μM, Table 2 footnote b): < 50% |
| Nc1c2c(nc3c1C(c1cccc(F)c1)c1oc(CO)cc(=O)c1O3)CCCC2 (stereo not drawn) [KT2g] | 4.34±0.17 TE | 101 ± 7.1% | 96.5 ± 7.4% | 99.1 ± 3.8% | 109 ± 6.1% | 103 ± 6.4% | 90.5 ± 9.6% | 62.6 ± 9.7% | 2.14 ± 0.12 µM | 4.54 ± 0.2 µM | – |
| Nc1c2c(nc3c1C(c1ccc(F)cc1)c1oc(CO)cc(=O)c1O3)CCCC2 (stereo not drawn) [KT2h] | 4.69±0.18 TE | 97.4 ± 2.3% | 95.9 ± 3.8% | 100 ± 1.5% | 101.4 ± 0.6% | 102 ± 1.8% | 87.2 ± 6.7% | 55.3 ± 6% | 3.44 ± 0.04 µM | – | inhibition at 10 µM [4]: < 50% |
| Nc1c2c(nc3c1C(c1ccccc1Cl)c1oc(CO)cc(=O)c1O3)CCCC2 (stereo not drawn) [KT2i] | 4.84±0.06 TE | 98.6 ± 1.4% | 100 ± 1.9% | 99.4 ± 1.2% | 105 ± 2.6% | 95.2 ± 4.7% | 64.4 ± 6.3% | 23.1 ± 6% | 0.76 ± 0.09 µM | 8.54 ± 0.12 µM | – |
| Nc1c2c(nc3c1C(c1cccc(Cl)c1)c1oc(CO)cc(=O)c1O3)CCCC2 (stereo not drawn) [KT2j] | 4.67±0.31 TE | 97.6 ± 2% | 101 ± 5.4% | 105 ± 5.5% | 99.6 ± 2.4% | 102 ± 6.9% | 52.7 ± 8.3% | 14.5 ± 6.4% | 0.82 ± 0.05 µM | 4.19 ± 0.11 µM | – |
| Nc1c2c(nc3c1C(c1cccc(Br)c1)c1oc(CO)cc(=O)c1O3)CCCC2 (stereo not drawn) [KT2k] | 2.61±0.11 TE | 101 ± 4.8% | 104 ± 8.9% | 94.9 ± 2.6% | 95.8 ± 2.5% | 101 ± 3.1% | 60.1 ± 10.4% | 37.2 ± 5.9% | 0.74 ± 0.08 µM | 3.9 ± 0.09 µM | – |
| Nc1c2c(nc3c1C(c1c(Cl)cccc1Cl)c1oc(CO)cc(=O)c1O3)CCCC2 (stereo not drawn) [KT2l] | 6.14±0.40 TE and 6.14 TE | 99.9 ± 2.7% | 102 ± 2.3% | 102 ± 2.6% | 99.9 ± 3.2% | 88.9 ± 8% | 68.3 ± 9.3% | 50.5 ± 7.5% | 2.12 ± 0.09 µM | – | inhibition at 10 µM [4]: < 50% |
| COc1ccc2[nH]cc(CCNC(C)=O)c2c1 [Melatonin, melatonin] | – | – | – | – | – | – | – | – | – | – | Aβ1–40 (%) neuroprotection ([9]; compound 1 µM): 35.5 ± 4.1 %; Aβ1–40 (%) neuroprotection ([9]; compound 3 µM): 60.2 ± 3.57 %; O/R (%) neuroprotection ([10]; compound 1 µM): 50.1 ± 3.42 %; O/R (%) neuroprotection ([10]; compound 3 µM): 59.1 ± 4.50 % |
| Nc1c2c(nc3ccccc13)CCCC2 [Tacrine, tacrine, reference compound] | 0.2 ± 0.1 TE | – | – | – | – | – | – | – | – | – | viability at 1 µM [2]: 112 ± 4%; viability at 3 µM [2]: 114 ± 4.8%; viability at 10 µM [2]: 108 ± 3.4%; viability at 30 µM [2]: 110 ± 4.2%; viability at 100 µM [2]: 102 ± 2.4%; viability at 300 µM [2]: 42.4 ± 2%; viability at 1000 µM [2]: 10.9 ± 2% |
